Laboratory results taken from ChEMBL document CHEMBL1155052, “Hypaphorine, an indole alkaloid from Erythrina velutina, induced sleep on normal mice” (2008).

How the values were obtained:
Assay type in all cases: functional
Conditions in all cases: route intraperitoneal
Mus musculus [1] = assay: Decrease in waking duration in C57BL mouse assessed during first hour of administration at 300 mg/kg, ip; set-up: scale not given: the % may be the effect or the level left
Mus musculus [2] = assay: Increase in non-rapid eye movement sleep time in C57BL mouse assessed during first hour of administration at 300 mg/kg, ip
Mus musculus [3] = assay: Increase in total sleep time in C57BL mouse assessed during first hour of administration at 300 mg/kg, ip

Structure (SMILES): C[N+](C)(C)[C@H](Cc1c[nH]c2ccccc12)C(=O)[O-] [HYPAPHORINE]
- Activity (Mus musculus [1]): 16%
- Activity (Mus musculus [2]): 33%
- Activity (Mus musculus [3]): 32%
